We go through two compounds from patent publication US9452225B2, “GLP-1 prodrugs” (Novo Nordisk A/S, priority 2012, dated 2016).

Numbered stars: 1 amine (or outer) side, 2 acyl side, 3 side chain; on linkers, the order of the positions; unused ones are H or OH. Square brackets hold non-standard residues; d marks the D form. Side chains are listed from the residue outwards. Peptide text beside a SMILES is read from it. * marks the point of attachment. Lactoyl(3-(imidazol-4-yl)) = O=C([C@@H](O)Cc1c[nH]cn1)*; C18 diacid = O=C(O)CCCCCCCCCCCCCCCCC(=O)*; γGlu = O=C(O)[C@H](CCC(=O)[*:2])N[*:1]; AEEA = NCCOCCOCC(=O)O; Aib = CC(C)(N)C(=O)O

Assay [1] deals with T1, human GLP-1 receptor (Homo sapiens, UniProt P43220).
T1 construct: expressed in transfected cells; host or cells: BHK cells, clone FCW467-12A (parent line BHKTS13), membranes
T1 sequence (P43220 24-463): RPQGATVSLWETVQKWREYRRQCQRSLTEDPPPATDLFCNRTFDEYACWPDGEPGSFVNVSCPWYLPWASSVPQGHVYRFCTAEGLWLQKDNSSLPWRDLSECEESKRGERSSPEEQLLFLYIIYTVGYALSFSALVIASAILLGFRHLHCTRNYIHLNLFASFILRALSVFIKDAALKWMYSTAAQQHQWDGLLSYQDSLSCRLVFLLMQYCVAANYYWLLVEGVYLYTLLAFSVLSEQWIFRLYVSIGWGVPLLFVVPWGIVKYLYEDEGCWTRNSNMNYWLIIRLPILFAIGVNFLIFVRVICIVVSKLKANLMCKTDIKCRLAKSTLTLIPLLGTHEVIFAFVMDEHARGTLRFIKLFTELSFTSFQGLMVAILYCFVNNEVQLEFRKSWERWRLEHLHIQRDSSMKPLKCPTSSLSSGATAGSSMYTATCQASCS
Nature of the assay: In vitro potency, CRE luciferase reporter gene assay in whole BHK cells. The format is cell-based. The note with it: 0% HSA. As to the method: The purpose of this example is to test the activity, or potency, of, for example, the GLP-1 parent drugs of the prodrugs of the invention. The in vitro potency is the measure of human GLP-1 receptor activation in a whole cell assay. This method is an alternative to the method of Example 8.
In vitro potency was determined by measuring the response of the human GLP-1 receptor in a reporter gene assay. The assay was performed in a stably transfected BHK cell line that expresses the human GLP-1 receptor and contains the DNA for the cAMP response element (CRE) coupled to a promoter and the gene for firefly luciferase (CRE luciferase). When the human GLP-1 receptor is activated it results in the production of cAMP, which in turn results in the luciferase protein being expressed. When assay incubation is completed the luciferase substrate (luciferin) is added and the enzyme converts luciferin to oxyluciferin to produce bioluminescence. The luminescence is measured as the readout for the assay.
In order to test the binding of the derivatives to albumin, the assay may if desired be performed in the absence of serum albumin as well as in the presence of a considerably higher concentration of serum albumin (1.0% final assay concentration). […]
3) The cells were counted and adjusted to 5×10^3 cells/50 μl (1×10^5 cells/ml) in Assay Medium. […]

The target in assay [2] is T1, human GLP-1 receptor. Nature of the assay: GLP-1 receptor binding, SPA displacement of 125I-GLP-1, low albumin. The note with it: low albumin (0.005% HSA). As to the method: The purpose of this experiment is to test the receptor binding activity of the GLP-1 parent drugs of the prodrugs of the invention. The receptor binding is a measure of affinity of a parent drug for the human GLP-1 receptor. The parent GLP-1 drugs of Examples B2.1, B2.2, B2.3, B2.4, and B2.5 were tested as described below.
The receptor binding of the GLP-1 drugs to the human GLP-1 receptor was measured in a competitive binding assay. In this type of assay a labelled ligand (in this case ^125I-GLP-1) is bound to the receptor. Each drug is added in a series of concentrations to isolated membranes containing the human GLP-1 receptor and displacement of the labelled ligand is monitored. The receptor binding is reported as the concentration at which half of the labelled ligand is displaced from the receptor, the IC50 value. […]
The cells were grown at 5% CO2 in DMEM, 10% fetal calf serum, 1% Pen/Strep (Penicillin/Streptomycin) and 1.0 mg/ml of the selection marker G418. […] The resulting pellet was re-suspended in buffer 2 and the protein concentration was determined. […]

For the compound `CC[C@H](C)[C@H](NC(=O)[C@H](Cc1ccccc1)NC(=O)[C@H](CCCCNC(=O)COCCOCCNC(=O)COCCOCCNC(=O)CC[C@H](NC(=O)CCCCCCCCCCCCCCCCC(=O)O)C(=O)O)NC(=O)[C@H](CCCNC(=N)N)NC(=O)[C@H](C)NC(=O)[C@H](C)NC(=O)[C@H](CCC(N)=O)NC(=O)[C@H](CCC(=O)O)NC(=O)[C@H](CCC(=O)O)NC(=O)[C@H](CC(C)C)NC(=O)[C@H](Cc1ccc(O)cc1)NC(=O)[C@H](CO)NC(=O)[C@H](CO)NC(=O)[C@@H](NC(=O)[C@H](CC(=O)O)NC(=O)[C@H](CO)NC(=O)[C@@H](NC(=O)[C@H](Cc1ccccc1)NC(=O)[C@@H](NC(=O)CNC(=O)[C@H](CCC(=O)O)NC(=O)C(C)(C)NC(=O)[C@@H](O)Cc1c[nH]cn1)[C@@H](C)O)[C@@H](C)O)C(C)C)C(=O)N[C@@H](C)C(=O)N[C@@H](Cc1c[nH]c2ccccc12)C(=O)N[C@@H](CC(C)C)C(=O)N[C@H](C(=O)N[C@@H](CCCNC(=N)N)C(=O)NCC(=O)N[C@@H](CCCNC(=N)N)C(=O)NCC(=O)O)C(C)C` [Example B2.4, N^ε27 [(S)-(22,40-dicarboxy-10,19,24-trioxo-3,6,12,15-tetraoxa-9,18,23-triazatetracontan-1-oyl)]-N^α8-{3-[(2S)-2-hydroxy-3-(1H-imidazol-4-yl)propanoyl}-Aib^8,Glu^22,Arg^26,Lys^27,Arg^34]-GLP-1-(8-37)-peptide] ({Lactoyl(3-(imidazol-4-yl))}-[Aib]EGTFTSDVSSYLEEQAARK([AEEA-AEEA-γGlu-C18 diacid])FIAWLVRGRG-OH; C-terminus assumed), in assay [1], it took 4 pM to reach a half-maximal effect (EC50). The IC50 in assay [2] turned out to be 0.09 nM.
The matching figures for `CC[C@H](C)[C@H](NC(=O)[C@H](Cc1ccccc1)NC(=O)[C@H](CCC(=O)O)NC(=O)[C@H](CCCCNC(=O)COCCOCCNC(=O)COCCOCCNC(=O)CC[C@H](NC(=O)CCCCCCCCCCCCCCCCC(=O)O)C(=O)O)NC(=O)[C@H](C)NC(=O)[C@H](C)NC(=O)[C@H](CCCNC(=N)N)NC(=O)CNC(=O)[C@H](CCC(=O)O)NC(=O)[C@H](CC(C)C)NC(=O)[C@H](Cc1ccc(O)cc1)NC(=O)[C@H](CO)NC(=O)[C@H](CO)NC(=O)[C@@H](NC(=O)[C@H](CC(=O)O)NC(=O)[C@H](CO)NC(=O)[C@@H](NC(=O)[C@H](Cc1ccccc1)NC(=O)[C@@H](NC(=O)CNC(=O)[C@H](CCC(=O)O)NC(=O)C(C)(C)NC(=O)[C@@H](O)Cc1c[nH]cn1)[C@@H](C)O)[C@@H](C)O)C(C)C)C(=O)N[C@@H](C)C(=O)N[C@@H](Cc1c[nH]c2ccccc12)C(=O)N[C@@H](CC(C)C)C(=O)N[C@H](C(=O)N[C@@H](CCCNC(=N)N)C(=O)NCC(=O)N[C@@H](CCCNC(=N)N)C(=O)NCC(=O)O)C(C)C` [Example B2.5, N^ε26 [(S)-(22,40-dicarboxy-10,19,24-trioxo-3,6,12,15-tetraoxa-9,18,23-triazatetracontan-1-oyl)]-N^α8-{3-[(2S)-2-hydroxy-3-(1H-imidazol-4-yl)propanoyl}-Aib^8,Arg^23,Arg^34]-GLP-1-(8-37)-peptide] ({Lactoyl(3-(imidazol-4-yl))}-[Aib]EGTFTSDVSSYLEGRAAK([AEEA-AEEA-γGlu-C18 diacid])EFIAWLVRGRG-OH; C-terminus assumed): 31 pM and 0.22 nM.
